row,SMILES,logP
1,C=CCN(C(=O)CCl)c1ccc(Cl)cc1,3.19
2,CCN(C(=O)CCl)c1ccccc1C,2.82
3,CCOC(=O)[C@H](C)N(C(=O)CCl)c1ccccc1,1.79
4,CCOP(=S)(Oc1ccc(Cl)cc1Cl)SCC(=O)N(CC)c1ccccc1C (stereo not given),2.82
5,COP(=S)(OC)SCC(=O)N(c1ccccc1)C(C)C,2.5
6,COP(=S)(OC)SCC(=O)N(Cc1ccccc1)c1ccc(Cl)cc1,4.09
7,CCOC(=O)C(C)N(C(=O)CSP(=S)(OC)OC)c1cccc(Cl)c1 (stereo not given),3.68
8,C=CCN(C(=O)CSP(=S)(OC)OC)c1ccccc1C,2.93
9,C=CCN(C(=O)CCl)c1cccc(Cl)c1,3.38
10,CCN(C(=O)CSP(=S)(OC)OC)c1ccccc1,2.26
11,CCOC(=O)[C@H](C)N(C(=O)CCl)c1ccc(Cl)cc1,2.75
12,CCN(C(=O)CSP(=S)(OC)OC)c1ccccc1C,2.82
13,CCN(C(=O)CSP(=S)(OC)OC)c1ccc(C)cc1,2.81
14,CCOP(=S)(Oc1ccc(Cl)cc1Cl)SCC(=O)N(CC)c1ccc(C)cc1 (stereo not given),2.82
15,CCN(C(=O)CCl)c1ccccc1,2.26
16,CCOC(=O)C(C)N(C(=O)CSP(=S)(OC)OC)c1ccc(Cl)cc1 (stereo not given),2.75
17,COP(=S)(OC)SCC(=O)N(Cc1ccccc1)c1ccccc1,3.13
18,C=CCN(C(=O)CSP(=S)(OC)OC)c1ccc(C)cc1,2.92
19,O=C(CCl)N(Cc1ccccc1)c1ccccc1,3.13
20,C=CCN(C(=O)CCl)c1ccc(C)cc1,2.92
21,CCOC(=O)CN(C(=O)CSP(=S)(OC)OC)c1ccccc1Cl,2.42
22,CCCN(C(=O)CCl)c1ccc(Cl)cc1,3.62
23,CCOC(=O)CN(C(=O)CCl)c1cccc(Cl)c1,2.42
24,CCOC(=O)CN(C(=O)CSP(=S)(OC)OC)c1ccccc1,1.19
25,CCOC(=O)CN(C(=O)CSP(=S)(OC)OC)c1ccc(Cl)cc1,2.15
26,CCOC(=O)CN(C(=O)CCl)c1ccc(Cl)cc1,2.15
27,O=C(CCl)N(Cc1ccccc1)c1ccc(Cl)cc1,4.09
28,O=C(CCl)N(Cc1ccccc1)c1cccc(Cl)c1,4.28
29,C=CCN(C(=O)CSP(=S)(OC)OC)c1ccc(Cl)cc1,3.19
30,CCOC(=O)C(C)N(C(=O)CSP(=S)(OC)OC)c1ccccc1 (stereo not given),1.79

# Reference: the SangsterLogP compilation
